# According to US6433011B1, “Method for inhibiting formation of aberrant crypt foci in the colon of a mammal” (American Health Foundation, priority 2000, dated 2002):
# Entries after “also recorded” stand apart in the source; their conditions may differ. Marks after values point to notes of the source that are not given here.
# Key:
# [1] = target: N,N-dimethylnitrosamine (NDMA) demethylase (CYP2E1) (Rattus norvegicus, UniProt P05182); details: rat liver microsomes; previously shown (ref 26); cited from earlier work
# Chain of N,N-dimethylnitrosamine (NDMA) demethylase (CYP2E1) (P05182 whole entry): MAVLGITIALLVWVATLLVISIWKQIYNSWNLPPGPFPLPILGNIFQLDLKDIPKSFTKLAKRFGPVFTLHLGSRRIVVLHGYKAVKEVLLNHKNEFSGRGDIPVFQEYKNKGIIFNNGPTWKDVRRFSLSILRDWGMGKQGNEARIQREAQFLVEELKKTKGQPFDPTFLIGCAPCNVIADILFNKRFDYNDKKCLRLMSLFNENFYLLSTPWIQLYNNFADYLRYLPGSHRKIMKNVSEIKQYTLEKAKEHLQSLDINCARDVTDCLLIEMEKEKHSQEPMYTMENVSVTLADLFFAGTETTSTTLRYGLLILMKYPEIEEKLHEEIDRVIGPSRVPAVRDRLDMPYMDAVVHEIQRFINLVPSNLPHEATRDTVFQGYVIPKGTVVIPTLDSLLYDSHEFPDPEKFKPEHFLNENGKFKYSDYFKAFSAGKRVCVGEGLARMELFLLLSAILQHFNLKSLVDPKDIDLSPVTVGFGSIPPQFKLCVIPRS
# [2] = dog, in vivo; cited from earlier work
# ACF formation = details: given in the diet, short-term study (ref 10); cited from earlier work
# [3] = test system: aberrant crypt foci (ACF) induced by azoxymethane (AOM) in the colon; assay: AOM-induced colonic aberrant crypt foci (ACF) bioassay; type: in vivo, Male F344 rats
# Text: The inventors designed a bioassay to examine whether SFN and PEITC can inhibit the formation of aberrant crypt foci (ACF) induced by azoxymethane (AOM) in Fischer rats. ACF has been recognized as an early preneoplastic lesion of colon cancer (7-9) and it is generally observed that agents that inhibit colonic ACF formation would show chemopreventive activity against colon cancer (10). […] The structures of SFN and PEITC and their NAC conjugates are shown below. Two treatment regimens in which SFN and PEITC or their NAC conjugates were administered either after (post-initiation) or before (initiation) AOM treatment were used in the bioassay in order better to define the possible mechanism of action. [drawing 1] Male F344 rats were from Charles River (Kingston, N.Y.). They were fed AIN-76A diet (5% corn oil) and tap water ad libitum. […] PEITC and SFN were purchased from Aldrich Chemical Company (Milwaukee, Wis.) and LTK Labs, Inc. (St. […] The corresponding NAC conjugates were prepared by a published method (13, 26). The purity of the conjugates was greater than 97% as determined by high-performance liquid chromatography. AOM obtained from Ash-Stevens (Detroit, Mich.) was dissolved in saline and administered subcutaneously once a week for two weeks. SFN and PEITC in corn oil and the NAC conjugates in saline (10% DMSO) were given by gavage. Groups 2 to 5 were given 5 μmol SFN or PEITC or 20 μmol of the NAC conjugates, three doses each week for eight weeks, beginning two days after the last dose of AOM. Groups 6 to 9 were treated with three doses of ITC compounds (20 μmol ITC or 50 μmol ITC-NAC) once daily and the last dose was given 2 hr before AOM dosing. This dosing regimen was repeated during the second week of AOM dosing. Groups 10 to 13 were treated with ITCs (5 μmol/dose) or the conjugates (20 μmol/dose) only, three times weekly for eight weeks. Group 14 served as the control group. The bioassay was terminated at week 10 after the second AOM treatment. The colon was processed for microscopic examination and the ACF were recorded using a standard procedure described previously (14). […] For statistical analysis, means were compared among the groups using one-way analysis of variance (ANOVA) followed by Fisher's protected t-test.
# esophagus tumorigenesis = details: rats; at the dose level studied (refs 29, 30); cited from earlier work
# lung tumorigenesis = details: previously reported; cited from earlier work
# colon tumorigenesis = details: rats; at the dose level studied (refs 29, 30); cited from earlier work
# colon tumor incidence = details: AOM treated rats, cited from earlier work
# [4] = Toxicity observations (body weight, gastrointestinal symptoms) in the ACF bioassay
# [5] = initiation (pretreatment): 20 μmol ITC or 50 μmol ITC-NAC before AOM, negative = enhancement
# [6] = initiation (pretreatment): 20 μmol ITC or 50 μmol ITC-NAC by gavage before AOM, AOM alone (Group 1) 52
# [7] = initiation (pretreatment): 20 μmol ITC or 50 μmol ITC-NAC by gavage before AOM, AOM alone (Group 1) 153
# [8] = post-initiation: 5 μmol SFN or PEITC or 20 μmol NAC conjugate by gavage, three doses weekly for eight weeks after AOM, AOM alone (Group 1) 52
# [9] = post-initiation: 5 μmol SFN or PEITC or 20 μmol NAC conjugate by gavage, three doses weekly for eight weeks after AOM, AOM alone (Group 1) 153
# [10] = post-initiation: 5 μmol SFN or PEITC or 20 μmol NAC conjugate, three doses weekly for eight weeks after AOM
# [11] = ITC compound only, no AOM: 5 μmol/dose ITC or 20 μmol/dose conjugate, three times weekly for eight weeks
# [12] = initiation: ITC compound by gavage before AOM, 20 μmol ITC or 50 μmol ITC-NAC, three doses once daily, last 2 hr before AOM, repeated in second week
# [13] = post-initiation: ITC compound by gavage after AOM, 5 μmol SFN or PEITC or 20 μmol NAC conjugate, three doses each week for eight weeks
Compound,Inhibition of NDMA demethylase (CYP2E1) [1],Activity towards ACF formation (ACF formation),"Percent of inhibition compared to Group 1, Total aberrant crypt foci [3, 5]","Percent of inhibition compared to Group 1, aberrant crypt foci >4 Crypts [3, 5]","Number of aberrant crypt foci >4 Crypts [3, 6]","Number of aberrant crypt foci Total [3, 7]","Number of aberrant crypt foci >4 Crypts [3, 8]","Number of aberrant crypt foci Total [3, 9]","Percent of inhibition compared to Group 1, Total aberrant crypt foci [3, 10]","Percent of inhibition compared to Group 1, aberrant crypt foci >4 Crypts [3, 10]","Average Body Weight at Termination [4, 11]","Average Body Weight at Termination [4, 12]","Average Body Weight at Termination [4, 13]","Number of aberrant crypt foci >4 Crypts [3, 11]","Number of aberrant crypt foci Total [3, 11]",also measured
"S=C=NCCc1ccccc1 [PEITC, phenethyl isothiocyanate]",inhibitors,inactive,(25)^c %,(33)^f %,35,115,27,100,(35)^d %,(48)^c %,–,–,–,–,–,"Dose at which dose related weight loss became statistically significant [2]: 8 mg/kg; Dose at which signs of irritation of the mucosa of the urinary bladder were reported [2]: ≥ 4 mg/kg/day; Dose levels at which diarrhea and vomiting, with gastrointestinal irritation, occurred sporadically [2]: ≥ 2 mg/kg"
S=C=NCCCCCCc1ccccc1 [phenylhexyl ITC],–,–,–,–,–,–,–,–,–,–,–,–,–,–,–,Effect on esophagus tumorigenesis (esophagus tumorigenesis): enhanced; Effect on lung tumorigenesis (lung tumorigenesis): potent inhibitor; Effect on colon tumorigenesis (colon tumorigenesis): enhanced
"S=C=NCc1ccccc1 [BITC, benzyl isothiocyanate]",–,inactive; also recorded: slightly induce ACF formation,–,–,–,–,–,–,–,–,–,–,–,–,–,"Effect on colon tumor incidence, initiation phase (colon tumor incidence; initiation phase (ref 34)): inhibit; Effect on colon tumor incidence, post-initiation phase (colon tumor incidence; post-initiation phase (ref 34)): not during the post-initiation phase"
N-acetylcysteine conjugate of SFA [SFN-NAC],–,–,(22)^c %,15%,44,120,31,116,(24)^c %,(40)^c %,312,304,297,0,0,–
"CC(=O)N[C@@H](CSC(=S)NCCc1ccccc1)C(=O)O [PEITC-NAC, N-acetylcysteine conjugate of PEITC]",inhibitors,–,(−29)^e %,(−42)^c %,74,198,38,113,(26)^e %,(27)^f %,301,303,313,0,0,–
"C[S+]([O-])CCCCN=C=S (centres unmarked) [SFN, sulforaphane]",–,–,(29)^c %,(33)^f %,35,109,30,103,(33)^d %,"(42)^b,c %",309,310,301,0,0,–
